Experimental findings from patent US11660342B2, “Method for increasing permeability of blood-brain barrier” (POSTECH Research and Business Development Foundation, priority 2020, dated 2023) are described below.

A short description of data set [1]: Ultrasound-responsive NO release, real-time NO analysis. In kind it is physicochemical. To be noted: FIG. 5. As to the method:
Subsequently, ultrasound-responsive NO release of the nanogenerator was monitored under physiological conditions (DPBS, pH 7.4, 37° C.). When ultrasound was absent, only a small overall amount (1.53 nmol/mg) of NO was released.

The nature of data set [2]: Behaviour in water (aggregation, solubility). The format is physicochemical.

For `CCC(C)N(N=O)c1ccc(N(N=O)C(C)CC)cc1` (centres unmarked) [BNN6, N,N′-di-sec-butyl-N,N′-dinitroso-1,4-phenylenediamine], the “ultrasound-responsive nitric oxide release behavior” value in data set [1] is reported as “complete NO-releasability”. The water solubility result in data set [2] is given as “water-insoluble”.
